Test results taken from PubChem BioAssay (NCI).
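Where inhibition never reached the appropriate level, the endpoint shown equals the highest concentration tested. Otherwise, values were interpolated linearly from a five-concentration, 48-hour dose response in 96-well plates. At the GI50, growth is halved. At the TGI there is no net growth.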

Experiments:
Assay in all cases: growth of human tumour cells (NCI), 48 h
[1] = tested on: SK-MEL-28 melanoma
[2] = tested on: HCT-15 colon
[3] = tested on: BT-549 breast
[4] = tested on: MOLT-4 leukemia
[5] = tested on: HS 578T breast
[6] = tested on: HCC-2998 colon
[7] = tested on: DU-145 prostate
[8] = tested on: NCI-H23 lung
[9] = tested on: OVCAR-5 ovarian
[10] = tested on: IGROV1 ovarian
[11] = tested on: RPMI-8226 leukemia
[12] = tested on: MALME-3M melanoma
[13] = tested on: T-47D breast
[14] = tested on: CAKI-1 renal
[15] = tested on: ACHN renal
[16] = tested on: SF-539 CNS
[17] = tested on: SN12C renal
[18] = tested on: COLO 205 colon
[19] = tested on: MCF7 breast
[20] = tested on: EKVX NSCLC
[21] = tested on: UACC-62 melanoma
[22] = tested on: SNB-19 CNS
[23] = tested on: UACC-257 melanoma
[24] = tested on: OVCAR-3 ovarian
[25] = tested on: KM12 colon
[26] = tested on: SNB-75 CNS
[27] = tested on: 786-0 renal
[28] = tested on: SF-268 CNS
[29] = tested on: NCI-H226 lung
[30] = tested on: NCI/ADR-RES ovarian
[31] = tested on: A549 NSCLC
[32] = tested on: HOP-62 NSCLC
[33] = tested on: SK-MEL-5 melanoma
[34] = tested on: NCI-H522 lung
[35] = tested on: MDA-MB-435
[36] = tested on: UO-31 renal
[37] = tested on: HCT-116 colon
[38] = tested on: RXF 393 renal
[39] = tested on: TK-10 renal
[40] = tested on: MDA-MB-231 breast
[41] = tested on: U251 CNS
[42] = tested on: HL-60(TB) leukemia
[43] = tested on: M14 melanoma
[44] = tested on: A498 renal
[45] = tested on: PC-3 prostate
[46] = tested on: SK-MEL-2 melanoma
[47] = tested on: NCI-H460 lung
[48] = tested on: OVCAR-8 ovarian
[49] = tested on: SF-295 CNS
[50] = tested on: SK-OV-3 ovarian
[51] = tested on: SW-620 colon
[52] = tested on: HOP-92 NSCLC
[53] = tested on: CCRF-CEM leukemia
[54] = tested on: HT29 colon
[55] = tested on: OVCAR-4 ovarian

`CCCCCCCCCCCCCC1=NC(C)(C)CN1C(C)C` showed a GI50 [1] of 1740 nM, a TGI [1] of 3110 nM and a GI50 [2] of 1320 nM. The TGI [2] was 2590 nM, the GI50 [3] was 2330 nM and the TGI [3] was 6000 nM. For the same compound, the GI50 [4] was 1560 nM, the TGI [4] was 3260 nM and the GI50 [5] was 1790 nM. The TGI [5] was 3860 nM, the GI50 [6] was 1410 nM and the TGI [6] was 2740 nM. It also gave a GI50 [7] of 1700 nM, a TGI [7] of 3060 nM and a GI50 [8] of 1670 nM. It also gave a TGI [8] of 3110 nM, a GI50 [9] of 1680 nM and a TGI [9] of 3050 nM. For the same compound, the GI50 [10] was 1080 nM, the TGI [10] was 2260 nM and the GI50 [11] was 1200 nM. It also gave a TGI [11] of 3030 nM, a GI50 [12] of 1700 nM and a TGI [12] of 3410 nM. For the same compound, the GI50 [13] was 1840 nM, the TGI [13] was 3800 nM and the GI50 [14] was 1360 nM. The TGI [14] was 2840 nM, the GI50 [15] was 1640 nM and the TGI [15] was 2990 nM. The GI50 [16] was 1650 nM, the TGI [16] was 3010 nM and the GI50 [17] was 1590 nM. The TGI [17] was 2980 nM, the GI50 [18] was 1410 nM and the TGI [18] was 2710 nM. For the same compound, the GI50 [19] was 1670 nM, the TGI [19] was 3130 nM and the GI50 [20] was 1490 nM. The TGI [20] was 3170 nM, the GI50 [21] was 1740 nM and the TGI [21] was 3200 nM. The GI50 [22] was 1790 nM, the TGI [22] was 3180 nM and the GI50 [23] was 1920 nM. For the same compound, the TGI [23] was 3390 nM, the GI50 [24] was 1480 nM and the TGI [24] was 2800 nM. The GI50 [25] was 1650 nM, the TGI [25] was 3010 nM and the GI50 [26] was 1640 nM. For the same compound, the TGI [26] was 3000 nM, the GI50 [27] was 1720 nM and the TGI [27] was 3130 nM. For the same compound, the GI50 [28] was 1760 nM, the TGI [28] was 3140 nM and the GI50 [29] was 1720 nM. It also gave a TGI [29] of 3510 nM, a GI50 [30] of 1670 nM and a TGI [30] of 3510 nM. For the same compound, the GI50 [31] was 1760 nM, the TGI [31] was 3250 nM and the GI50 [32] was 1730 nM. For the same compound, the TGI [32] was 3170 nM, the GI50 [33] was 1670 nM and the TGI [33] was 3030 nM. The GI50 [34] was 1580 nM, the TGI [34] was 2970 nM and the GI50 [35] was 1510 nM. It also gave a TGI [35] of 3080 nM, a GI50 [36] of 1390 nM and a TGI [36] of 2690 nM. For the same compound, the GI50 [37] was 1380 nM, the TGI [37] was 2680 nM and the GI50 [38] was 1620 nM. The TGI [38] was 3110 nM, the GI50 [39] was 1580 nM and the TGI [39] was 3000 nM. For the same compound, the GI50 [40] was 1520 nM, the TGI [40] was 2890 nM and the GI50 [41] was 1640 nM. It also gave a TGI [41] of 3000 nM, a GI50 [42] of 1090 nM and a TGI [42] of 2720 nM. The GI50 [43] was 1720 nM, the TGI [43] was 3090 nM and the GI50 [44] was 2160 nM. For the same compound, the TGI [44] was 4580 nM, the GI50 [45] was 1340 nM and the TGI [45] was 3030 nM. For the same compound, the GI50 [46] was 1880 nM, the TGI [46] was 3390 nM and the GI50 [47] was 1890 nM. For the same compound, the TGI [47] was 3300 nM, the GI50 [48] was 1780 nM and the TGI [48] was 3420 nM. It also gave a GI50 [49] of 1620 nM, a TGI [49] of 3150 nM and a GI50 [50] of 1790 nM. The TGI [50] was 3170 nM, the GI50 [51] was 1580 nM and the TGI [51] was 2920 nM. For the same compound, the GI50 [52] was 655 nM, the TGI [52] was 2190 nM and the GI50 [53] was 1540 nM. It also gave a TGI [53] of 3430 nM, a GI50 [54] of 422 nM and a TGI [54] of 1470 nM. The GI50 [55] was 1760 nM and the TGI [55] was 3480 nM.
